Measured values taken from US6362176B1, “Compositions, methods and kits for treating rheumatoid arthritis” (Super Gen, Inc., priority 1998, dated 2002).

Legend:
RA patients [1] = assay: pentostatin monotherapy on a monthly schedule (inventor); assay type: in vivo, human; details: treatment continued past the flare
Excerpt: When the treatment was continued past the flare, approximately a third of the patients entered a pharmaceutical free remission for a period of weeks or months.

RA patients [2] = details: bi-weekly pentostatin, months 1 and 3; cited from earlier work
CLL; hairy cell leukemia = details: cited from earlier work
individuals with RA = details: cited from earlier work
[3] = cited from earlier work
[4] = 4 mg/M^2 once a week x3 or 4 followed by once every three to four weeks

OC[C@H]1O[C@@H](n2cnc3c2NC=NC[C@H]3O)C[C@@H]1O [pentostatin, 2′-deoxycoformycin]
patients entering a pharmaceutical free remission for weeks or months (RA patients [1]): approximately a third | patients with significant flare (duration of morning stiffness, tender and swollen joints) (RA patients [2]): 9 of 11 | efficacy in hairy cell leukemia (CLL; hairy cell leukemia; [4]): effective in inducing remission in hairy cell leukemia | toxicity at even lower doses (CLL; hairy cell leukemia; [4]): no toxicity | toxicity at lower doses (CLL; hairy cell leukemia; 5 mg/M^2 on two successive days): mild with transient leukopenia, nausea and lethargy or somnolence | clinical response in CLL (CLL; hairy cell leukemia; doses of 1.0 to 13.5 mg/kg): cytoreduction but no clinically meaningful remission in CLL | toxicity at very high doses (CLL; hairy cell leukemia; very high doses): substantial and may include renal failure secondary to acute tubular necrosis, central nervous system toxicity (seizures), pulmonary edema, and keratoconjunctivitis

CN(Cc1cnc2nc(N)nc(N)c2n1)c1ccc(C(=O)N[C@@H](CCC(=O)O)C(=O)O)cc1 [methotrexate, N-[4-[[(2,4-diamino-6-pteridinyl)methyl]methylamino]benzoyl]-L-glutamic acid]
patients remaining on methotrexate for two or more years (individuals with RA; in vivo): Up to 70% | time to worsening of RA after monotherapy is discontinued (individuals with RA; in vivo): three to six | patients expected to obtain at least partial relief (individuals with RA; methotrexate monotherapy, recent studies): about 70% | individuals still on the drug five years after starting (individuals with RA; methotrexate monotherapy): over 50% | individuals with RA getting some favorable response (individuals with RA; methotrexate monotherapy): Approximately 70% | patients entering remission as defined by ACR criteria (individuals with RA; methotrexate monotherapy): less than 30% | time of peak serum concentrations ([3]; intramuscular administration): thirty to sixty | absorption ([3]; parenteral administration): generally complete absorption
